Test results taken from US5808100A, “Chromene compounds and photochromic materials” (Tokuyama Corporation, priority 1995, dated 1998).

Experiments:
[1] = Photochromic properties of polymer (2 mm thick) containing the chromene compound, xenon lamp irradiation 120 seconds; assay type: physicochemical; parameters: key to Color density ε(120)-ε(0): absorbance at λmax after 120 s irradiation minus before, ε(120)-ε(0); conditions: for Color density ε(120)-ε(0): 120 seconds irradiation, 20° C.±1° C.; for Color density ε(120)-ε(0) / ε(0): absorbancy of the polymer not irradiated (initial color): at λmax; for Color fading rate t1/2: time until absorbancy decreases to one-half of [ε(120)-ε(0)]: after 120 seconds irradiation; for Maximum absorption wavelength λMax (developed color tone): polymer after developing color
Method: (§1) 0.05 Parts of the chromene compound obtained in Example 1 was added to 70 parts of a tetraethylene glycol dimethacrylate, 15 parts of a triethylene glycol dimethacrylate, 10 parts of a glycidyl methacrylate and 5 parts of a 2-hydroethyl methacrylate, and was mixed to a sufficient degree. The mixture solution was poured into a mold constituted by a glass plate and a gasket made from an ethylene/vinyl acetate copolymer and then polymerized. The polymerization was conducted by using an air furnace while gradually raising the temperature up to 30° C. to 90° C. over a period of 18 hours, the temperature being maintained at 90° C. for two hours. After the polymerization, the polymer was taken out from the glass mold.
The obtained polymer (2 mm thick) was irradiated with light from a xenon lamp L-2480 (300 W) SHL-100 manufactured by Hamamatsu Photonics Co. through an Aero Mass filter (manufactured by Corning Co.) for 120 seconds under the conditions of 20° C.±1° C., beam intensities of 365 nm=2.4 mW/cm^2 and […]=24 μW/cm^2 on the polymer surface to develop color and to measure photochromic properties. The photochromic properties were expressed as described below.
Maximum absorption wavelength (λmax): λmax of the polymer after it has developed color was found by using a spectrophotometer (instantaneous multi-channel photodetector MCPD1000) manufactured by Otsuka Denshi Kogyo Co.
ε(120): Absorbancy of the polymer using light of a maximum absorption wavelength after it was irradiated under the above-mentioned conditions for 120 seconds.
ε(0): Absorbancy of the polymer that has not been irradiated using light of a wavelength same as the maximum absorption wavelength of light with which the polymer was irradiated.
ε(120)-ε(0): Color density
(§2) Color fading rate [t1/2 ]: Time required by the polymer irradiated for 120 seconds until the absorbancy decreases down to one-half of [ε(120)-ε(0)]. Durability [T1/2 ]: Time required until the absorbency at the maximum absorption wavelength decreases down to 1/2 of the initial absorbency as measured by using a xenon fadometer FAC-25AX-HC manufactured by Suga Shikenki Co.
(§3) The photochromic polymers were obtained in the same manner as described above but using the compounds obtained in Examples 2 to 33 as chromene compounds. For the purpose of comparison, properties of the compounds represented by the following formulas (A), (B), (D) and (E) were also shown in Table 3. [drawing 110]

[2] = Durability T1/2 by xenon fadometer FAC-25AX-HC; assay type: physicochemical; conditions: in polymer
Method: as §1, §2, §3

With `COc1cc2c(c3ccccc13)C=CC(c1cc(Cl)c3ccccc3c1)(c1cc3ccccc3s1)O2` (centres unmarked) [Compound 29] the “Color density ε(120)-ε(0)” value [1] was 1.30, the “Color fading rate t1/2: time until absorbancy decreases to one-half of [ε(120)-ε(0)]” value [1] was 0.000949 days and the “ε(0): absorbancy of the polymer not irradiated (initial color)” value [1] was 0.12. The “Maximum absorption wavelength λMax (developed color tone)” value (from here on “Maximum absorption wavelength λMax”) [1] was 440 nm and the “Durability T1/2: time until absorbancy at maximum absorption wavelength decreases to 1/2 of the initial” value [2] was 20 days.

For `Fc1c(C2(c3ccsc3)C=Cc3c(ccc4ccccc34)O2)ccc2ccccc12` (centres unmarked) [Compound 30], the “Color density ε(120)-ε(0)” value [1] was 1.18, the “Color fading rate t1/2: time until absorbancy decreases to one-half of [ε(120)-ε(0)]” value [1] was 0.00081 days and the “ε(0): absorbancy of the polymer not irradiated (initial color)” value [1] was 0.04. The “Maximum absorption wavelength λMax” value [1] was 450 nm and the “Durability T1/2: time until absorbancy at maximum absorption wavelength decreases to 1/2 of the initial” value [2] was 20.6 days.

In the case of `Fc1c(C2(c3ccco3)C=Cc3c(ccc4ccccc34)O2)ccc2ccccc12` (centres unmarked) [Compound 31], the “Color density ε(120)-ε(0)” value [1] is reported as 1.44, the “Color fading rate t1/2: time until absorbancy decreases to one-half of [ε(120)-ε(0)]” value [1] is reported as 0.000926 days and the “ε(0): absorbancy of the polymer not irradiated (initial color)” value [1] is reported as 0.06. The “Maximum absorption wavelength λMax” value [1] was 480 nm and the “Durability T1/2: time until absorbancy at maximum absorption wavelength decreases to 1/2 of the initial” value [2] was 20.4 days.

In the case of `Fc1occc1C1(c2ccc3ccccc3c2)C=Cc2c(ccc3ccccc23)O1` (centres unmarked) [Compound 32], the “Color density ε(120)-ε(0)” value [1] is reported as 1.28, the “Color fading rate t1/2: time until absorbancy decreases to one-half of [ε(120)-ε(0)]” value [1] is reported as 0.000752 days and the “ε(0): absorbancy of the polymer not irradiated (initial color)” value [1] is reported as 0.05. For the same molecule, the “Maximum absorption wavelength λMax” value [1] was 450 nm and the “Durability T1/2: time until absorbancy at maximum absorption wavelength decreases to 1/2 of the initial” value [2] was 20.4 days.

In the case of `Fc1cc2ccccc2cc1C1(c2cccs2)C=Cc2c(ccc3ccccc23)O1` (centres unmarked) [Compound 33], the “Color density ε(120)-ε(0)” value [1] is reported as 1.11, the “Color fading rate t1/2: time until absorbancy decreases to one-half of [ε(120)-ε(0)]” value [1] is reported as 0.000787 days and the “ε(0): absorbancy of the polymer not irradiated (initial color)” value [1] is reported as 0.04. The “Maximum absorption wavelength λMax” value [1] was 460 nm and the “Durability T1/2: time until absorbancy at maximum absorption wavelength decreases to 1/2 of the initial” value [2] was 20.6 days.

In the case of `C1=CC(c2ccccc2)(c2cccs2)Oc2ccc3ccccc3c21` (centres unmarked) [D, reference compound], the “Color density ε(120)-ε(0)” value [1] is reported as 0.51, the “Color fading rate t1/2: time until absorbancy decreases to one-half of [ε(120)-ε(0)]” value [1] is reported as 0.000486 days and the “ε(0): absorbancy of the polymer not irradiated (initial color)” value [1] is reported as 0.04. The “Maximum absorption wavelength λMax” value [1] was 466 nm and the “Durability T1/2: time until absorbancy at maximum absorption wavelength decreases to 1/2 of the initial” value [2] was 20.4 days.

With `Cc1csc(C2(c3scc(C)c3C)C=Cc3c(ccc4ccccc34)O2)c1C` [E, reference compound] the “Color density ε(120)-ε(0)” value [1] was 0.86, the “Color fading rate t1/2: time until absorbancy decreases to one-half of [ε(120)-ε(0)]” value [1] was 0.000868 days and the “ε(0): absorbancy of the polymer not irradiated (initial color)” value [1] was 0.26. For the same molecule, the “Maximum absorption wavelength λMax” value [1] was 514 nm and the “Durability T1/2: time until absorbancy at maximum absorption wavelength decreases to 1/2 of the initial” value [2] was 20.2 days.
